How the values were obtained:
[1] = system: alpha- and beta-coronaviruses; test: organism not typed; settings: read-out: EC50 values against the various coronaviruses
HCoV-229E = test: Confocal microscopy of dsRNA, HCoV-229E-infected Huh7 cells; type: cell-based; settings: dsRNA staining, 6 h
[2] = system: LC3 puncta (autophagy pathway); test: High content analysis of cytoplasmic LC3 puncta in HEp-2 cells; type: cell-based, human; settings: 3 h incubation, relative to untreated control
SARS-CoV-2 [3] = test: Confocal microscopy of dsRNA, SARS-CoV-2-infected Huh7 cells; type: cell-based; settings: chloroquine 5 μM, 6 h
[4] = system: LC3-positive puncta (autophagy); test: Confocal microscopy of LC3 in Huh7 cells; type: cell-based, human; settings: chloroquine 0.5, 5 and 50 μM, 6 h, infected and uninfected Huh7 cells
SARS-CoV-2 [5] = type: cell-based

Compound	EC50 [1] [µM]	also measured
CCN(CC)CCCC(C)Nc1ccnc2cc(Cl)ccc12 (stereo not drawn) [Chloroquine, chloroquine]	0.12 to 12	concentration required to fully inhibit HCoV-229E replication (HCoV-229E): 50 µM; increase of the intensity of cytoplasmic LC3 puncta [2]: 6 fold; viral RNA synthesis (dsRNA staining) (SARS-CoV-2 [3]): completely blocked; LC3-positive puncta [4]: dose-dependent increase
C=C[C@H]1C[N@@]2CC[C@H]1C[C@@H]2[C@@H](O)c1ccnc2ccc(OC)cc12 [Quinidine, quinidine]	> 13	–
COc1cc(C)c2c(Oc3cccc(C(F)(F)F)c3)c(OC)cc(NC(C)CCCN)c2n1 (stereo not drawn) [Tafenoquine, tafenoquine]	> 13	–
COc1cc(NC(C)CCCN)c2ncccc2c1 (stereo not drawn) [Primaquine, primaquine]	> 13	–
C=C[C@H]1C[N@@]2CC[C@H]1C[C@H]2[C@H](O)c1ccnc2ccc(OC)cc12 [Quinine, quinine]	> 13	–
N#C[C@@]1(c2ccc3c(N)ncnn23)O[C@H](CO)[C@@H](O)[C@H]1O [GS-441524]	–	log reduction of the viral copy number (SARS-CoV-2 [5]): 4.3 log
CCN(CCO)CCCC(C)Nc1ccnc2cc(Cl)ccc12 (stereo not drawn) [Hydroxychloroquine, hydroxychloroquine]	0.12 to 12	increase of the intensity of cytoplasmic LC3 puncta [2]: 6 fold

— article PMC8247284 (Antiviral Research, 2021)
